Measurements taken from patent US20230339937A1, “CONDENSED RING COMPOUNDS THAT INHIBIT H-PGDS” (SATO PHARMACEUTICAL CO., LTD., priority 2020, published 2023).
Counter-ions that a name gives are not always drawn.

Target: T1, Recombinant human H-PGDS (Homo sapiens, UniProt O60760)
T1 construct: made in house; host or cells: E. coli
Assay: H-PGDS inhibitory activity (prostaglandin D2 production from prostaglandin H2, measured by LC-MS/MS)
Format: biochemical
Conditions: recombinant human H-PGDS 1.0 nM expressed in E. coli; prostaglandin H2 25 μM; preincubated 15 minutes on ice, reacted on ice for 1 minute; concentration that inhibits prostaglandin D2 production by 50%
Outline: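 Recombinant human H-PGDS (E. coli-expressed, 1.0 nM final) preincubated with compound 15 min on ice in 20 mM Tris-HCl pH 8.0, 2 mM MgCl2, 2 mM GSH, 0.5 mg/mL γ-globulin. Reaction with 25 µM PGH2 run 1 min on ice, stopped with FeCl2/citric acid, PGD2 quantified by LC-MS/MS. Activity expressed as % of DMSO control after subtracting non-enzymatic PGD2.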

T1 sequence (O60760 whole entry): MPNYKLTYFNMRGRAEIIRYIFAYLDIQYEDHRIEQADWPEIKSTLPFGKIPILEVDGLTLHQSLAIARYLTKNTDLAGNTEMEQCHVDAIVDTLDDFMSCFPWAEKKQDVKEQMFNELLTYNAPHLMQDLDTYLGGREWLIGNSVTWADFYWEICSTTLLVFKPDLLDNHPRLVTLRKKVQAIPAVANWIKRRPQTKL

IC50 [nM] | SMILES
1.4 | CC(C)(O)C(=O)N1CCC(NC(=O)c2ccc(-c3nccc4occc34)cc2)CC1 [Example 245, 4-(furo[3,2-c]pyridin-4-yl)-N-[1-(2-hydroxy-2-methylpropanoyl)piperidin-4-yl]benzamide]
1.3 | O=C(NC1CCN(c2ccnc(Cl)c2)CC1)c1ccc(-c2nccc3occc23)cc1 [Example 165, N-[1-(2-chloropyridin-4-yl)piperidin-4-yl]-4-(furo[3,2-c]pyridin-4-yl)benzamide]
2.2 | O=C(NC1CCC(N2CCC(F)(F)CC2)CC1)c1ccc(-c2nccc3occc23)cc1 (stereo not shown) [Example 307, N-[4-(4,4-difluoropiperidin-1-yl)cyclohexyl]-4-(furo[3,2-c]pyridin-4-yl)benzamide]
14 | CC(C)(O)[C@H]1CC[C@H](NC(=O)c2ccc(-c3ncc(CO)c4occc34)cc2)CC1 [Example 135, 4-[7-(hydroxymethyl)furo[3,2-c]pyridin-4-yl]-N-[trans-4-(2-hydroxypropan-2-yl)cyclohexyl]benzamide]
4.2 | O=C(N[C@H]1CC[C@H](OC(F)F)CC1)c1ccc(-c2nccc3occc23)cc1 [Example 263, N-[trans-4-(difluoromethoxy)cyclohexyl]-4-(furo[3,2-c]pyridin-4-yl)benzamide]
2 | CCn1nnnc1N1CC[C@H](NC(=O)c2ccc(-c3nccc4occc34)cc2)C1 [Example 232, (S)-4-(furo[3,2-c]pyridin-4-yl)-N-[1-(1-ethyl-1H-tetrazol-5-yl)pyrrolidin-3-yl]benzamide]
169 | C=Cc1cc2occc2c(-c2ccc(C(=O)N[C@H]3CC[C@H](C(C)(C)O)CC3)cc2)n1 [Example 313, N-[trans-4-(2-hydroxypropan-2-yl)cyclohexyl]-4-(6-vinylfuro[3,2-c]pyridin-4-yl)benzamide]
1.7 | Cn1c(N2CCC(NC(=O)c3ccc(-c4nccc5occc45)cc3)CC2)nccc1=O [Example 183, 4-(furo[3,2-c]pyridin-4-yl)-N-[1-(1-methyl-6-oxo-1,6-dihydropyrimidin-2-yl)piperidin-4-yl]benzamide]
1.8 | CC(C)(O)[C@H]1CC[C@H](NC(=O)c2ccc(-c3nccc4occc34)cc2)CC1 [Example 124, 4-(furo[3,2-c]pyridin-4-yl)-N-[trans-4-(2-hydroxypropan-2-yl)cyclohexyl]benzamide]
4 | CCOC(=O)c1cnc(N2CCC(NC(=O)c3ccc(-c4nccc5occc45)cc3)CC2)o1 [Example 254, ethyl 2-{4-[4-(furo[3,2-c]pyridin-4-yl)benzamide]piperidin-1-yl]oxazole-5-carboxylate]
3.6 | O=C(NC1CCN(c2cccc3nccn23)CC1)c1ccc(-c2nccc3occc23)cc1 [Example 238, 4-(furo[3,2-c]pyridin-4-yl)-N-[1-(imidazo[1,2-a]pyridin-5-yl)piperidin-4-yl]benzamide]
1.3 | NC(=O)c1ccnc(N2CCC(NC(=O)c3ccc(-c4nccc5occc45)cc3)CC2)n1 [Example 175, 2-{4-[4-(furo[3,2-c]pyridin-4-yl)benzamide]piperidin-1-yl}pyrimidine-4-carboxamide]
7.7 | O=C(N[C@@H]1CCN(c2ncccn2)C1)c1ccc(-c2nccc3occc23)cc1 [Example 192, (R)-4-(furo[3,2-c]pyridin-4-yl)-N-[1-(pyrimidin-2-yl)pyrrolidin-3-yl]benzamide]
1.9 | O=C(NC1CCN(c2nccc(N3CCC3)n2)CC1)c1ccc(-c2nccc3occc23)cc1 [Example 178, N-{1-[4-(azetidin-1-yl)pyrimidin-2-yl]piperidin-4-yl}-4-(furo[3,2-c]pyridin-4-yl)benzamide]
2 | CC(C)(O)CO[C@H]1CC[C@H](NC(=O)c2ccc(-c3nccc4occc34)c(F)c2)CC1 [Example 329, 3-fluoro-4-(furo[3,2-c]pyridin-4-yl)-N-[trans-4-(2-hydroxy-2-methylpropoxy)cyclohexyl]benzamide]
1.8 | O=C(N[C@H]1CC[C@H](N2CCC(F)(F)C2)CC1)c1ccc(-c2nccc3occc23)cc1 [Example 306, N-[trans-4-(3,3-difluoropyrrolidin-1-yl)cyclohexyl]-4-(furo[3,2-c]pyridin-4-yl)benzamide]
2.6 | O=C(N[C@H]1CC[C@H](O)CC1)c1ccc(-c2nccc3occc23)cc1 [Example 256, 4-(furo[3,2-c]pyridin-4-yl)-N-(trans-4-hydroxycyclohexyl)benzamide]
1.6 | Cc1cc2occc2c(-c2ccc(C(=O)N[C@H]3CCN(c4ncccn4)C3)cc2)n1 [Example 332, (S)-4-(6-methylfuro[3,2-c]pyridin-4-yl)-N-[1-(pyrimidin-2-yl)pyrrolidin-3-yl]benzamide]
1.6 | O=C(N[C@@H]1CCC[C@H](O)CC1)c1ccc(-c2nccc3occc23)cc1 (relative stereo) [Example 293, 4-(furo[3,2-c]pyridin-4-yl)-N-(cis-4-hydroxycycloheptyl)benzamide]
2.8 | O=C(N[C@H]1CCCC[C@H]1O)c1ccc(-c2nccc3occc23)cc1 (relative stereo) [Example 273, 4-(furo[3,2-c]pyridin-4-yl)-N-(cis-2-hydroxycyclohexyl)benzamide]
1.4 | O=C(N[C@H]1CC[C@@H](OCC2(O)CC2)CC1)c1ccc(-c2nccc3occc23)cc1 [Example 353, 4-(furo[3,2-c]pyridin-4-yl)-N-(cis-4-[(1-hydroxycyclopropyl)methoxy]cyclohexyl)benzamide]
12 | CC1(NC(=O)c2ccc(-c3nccc4occc34)cc2)CCC(O)CC1 (stereo not shown) [Example 276, 4-(furo[3,2-c]pyridin-4-yl)-N-(4-hydroxy-1-methylcyclohexyl)benzamide]

More lines, now with the values behind:

SMILES | IC50 [nM]
COCCn1cc(CNC(=O)c2ccc(-c3nccc4[nH]ccc34)cc2)cn1 [Example 48, N-{[1-(2-methoxyethyl)-1H-pyrazol-4-yl]methyl}-4-(1H-pyrrolo[3,2-c]pyridin-4-yl)benzamide] | 0.72
Cn1nccc1CNC(=O)c1ccc(-c2nccc3[nH]ccc23)cc1 [Example 37, N-[(1-methyl-1H-pyrazol-5-yl)methyl]-4-(1H-pyrrolo[3,2-c]pyridin-4-yl)benzamide] | 0.86
O=C(NC1CCc2ccccc21)c1ccc(-c2nccc3occc23)cc1 (stereo not shown) [Example 97, N-(2,3-dihydro-1H-inden-1-yl)-4-(furo[3,2-c]pyridin-4-yl)benzamide] | 2.8
CC(C)N(CCNC(=O)c1ccc(-c2nccc3occc23)cc1)C(C)C [Example 98, N-[2-(diisopropylamino)ethyl]-4-(furo[3,2-c]pyridin-4-yl)benzamide dihydrochloride] | 107
COCCn1nc(C)c(CNC(=O)c2ccc(-c3nccc4[nH]ccc34)cc2)c1C [Example 45, N-{[1-(2-methoxyethyl)-3,5-dimethyl-1H-pyrazol-4-yl]methyl}-4-(1H-pyrrolo[3,2-c]pyridin-4-yl)benzamide] | 0.91
N#Cc1cccc(CNC(=O)c2ccc(-c3nccc4occc34)cc2)c1 [Example 73, N-(3-cyanobenzyl)-4-(furo[3,2-c]pyridin-4-yl)benzamide] | 4.8
Cn1cc(CNC(=O)c2ccc(-c3nccc4[nH]ccc34)cc2)cn1 [Example 55, N-[(1-methyl-1H-pyrazol-4-yl)methyl]-4-(1H-pyrrolo[3,2-c]pyridin-4-yl)benzamide] | 1.2
O=C(NCC1CCCC1)c1ccc(-c2nccc3[nH]ccc23)cc1 [Example 36, N-(cyclopenthyl-methyl)-4-(1H-pyrrolo[3,2-c]pyridin-4-yl)benzamide] | 0.83
O=C(NCC1CCCO1)c1ccc(-c2nccc3[nH]ccc23)cc1 (stereo not shown) [Example 20, 4-(1H-pyrrolo[3,2-c]pyridin-4-yl)-N-[(tetrahydrofuran-2-yl)methyl] benzamide] | 0.83
CC(C)(O)CO[C@H]1CC[C@H](NC(=O)c2ccc(-c3nccc4occc34)cc2)CC1 [Example 64, 4-(furo[3,2-c]pyridin-4-yl)-N-[trans-4-(2-hydroxy-2-methylpropoxy)cyclohexyl]benzamide] | 3.1
CC(C)N(CCNC(=O)c1ccc(-c2nccc3sccc23)cc1)C(C)C [Example 62, N-[2-(diisopropylamino)ethyl]-4-(thieno[3,2-c]pyridin-4-yl)benzamide dihydrochloride] | 86
O=C(Nc1ccc(F)cc1)c1ccc(-c2nccc3occc23)cc1 [Example 111, N-(4-fluorophenyl)-4-(furo[3,2-c]pyridin-4-yl)benzamide] | 5.5
O=C(NCc1ccncc1)c1ccc(-c2nccc3sccc23)cc1 [Example 60, N-(pyridin-4-ylmethyl)-4-(thieno[3,2-c]pyridin-4-yl)benzamide] | 15
Cn1ccnc1CNC(=O)c1ccc(-c2nccc3[nH]ccc23)cc1 [Example 52, N-[(1-methyl-1H-imidazol-2-yl)methyl]-4-(1H-pyrrolo[3,2-c]pyridin-4-yl)benzamide] | 1.6
O=C(NCc1cccc(Cl)c1)c1ccc(-c2nccc3[nH]ccc23)cc1 [Example 57, N-(3-chlorobenzyl)-4-(1H-pyrrolo[3,2-c]pyridin-4-yl)benzamide] | 1.4
O=C(NCc1cnn(CC(F)(F)F)c1)c1ccc(-c2nccc3[nH]ccc23)cc1 [Example 43, 4-(1H-pyrrolo[3,2-c]pyridin-4-yl)-N-{[1-(2,2,2-trifluoroethyl)-1H-pyrazol-4-yl]methyl} benzamide] | 1.3
O=C(N[C@H]1CC[C@H](NCC(F)(F)F)CC1)c1ccc(-c2nccc3occc23)cc1 [Example 119, 4-(furo[3,2-c]pyridin-4-yl)-N-{trans-4-[(2,2,2-trifluoroethyl)amino]cyclohexyl}benzamide] | 1.3
O=C(NCc1cccnc1)c1ccc(-c2nccc3[nH]ccc23)cc1 [Example 10, N-(pyridin-3-ylmethyl)-4-(1H-pyrrolo[3,2-c]pyridin-4-yl)benzamide] | 1.7
